Assay results taken from US7781591B2, “Substituted 3-cyanopyridines as protein kinase inhibitors” (Wyeth LLC, priority 2006, dated 2010).

Biological target: T1, human PKCθ full length enzyme (Homo sapiens, UniProt Q04759)
T1 construct: human PKCθ full length enzyme (Panvera Cat# P2996); purchased Panvera P2996
Assay: PKCθ IMAP assay (fluorescence polarization)
Type: biochemical
Conditions: human PKCθ full length enzyme, IMAP; average value; read-out: IC50 PKCθ IMAP

T1 sequence (Q04759 whole entry): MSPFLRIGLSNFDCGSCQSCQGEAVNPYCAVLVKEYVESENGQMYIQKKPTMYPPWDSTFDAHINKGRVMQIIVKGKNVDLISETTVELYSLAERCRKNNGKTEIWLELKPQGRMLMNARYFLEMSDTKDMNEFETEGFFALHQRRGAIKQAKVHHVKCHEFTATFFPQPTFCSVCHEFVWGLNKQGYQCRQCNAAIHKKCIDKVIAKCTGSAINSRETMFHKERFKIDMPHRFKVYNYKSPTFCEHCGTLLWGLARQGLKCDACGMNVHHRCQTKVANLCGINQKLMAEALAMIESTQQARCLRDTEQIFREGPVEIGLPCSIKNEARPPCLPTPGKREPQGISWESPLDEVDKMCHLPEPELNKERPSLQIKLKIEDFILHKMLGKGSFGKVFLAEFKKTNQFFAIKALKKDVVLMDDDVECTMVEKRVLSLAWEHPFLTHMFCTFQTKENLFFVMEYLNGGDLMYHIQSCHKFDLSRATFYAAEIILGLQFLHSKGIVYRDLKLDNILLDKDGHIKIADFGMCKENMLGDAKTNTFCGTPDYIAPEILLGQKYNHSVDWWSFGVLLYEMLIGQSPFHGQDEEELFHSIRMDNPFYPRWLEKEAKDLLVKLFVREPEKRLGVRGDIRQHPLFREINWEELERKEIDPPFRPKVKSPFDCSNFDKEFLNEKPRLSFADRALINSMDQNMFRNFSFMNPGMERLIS

Structure (SMILES) | IC50
N#Cc1cncc(-c2cccc(-c3ccc(C(=O)NCCCCO)cc3)c2)c1Nc1cccc2[nH]ccc12 [Compound 308, 3′-[5-cyano-4-(1H-indol-4-ylamino)pyridin-3-yl]-N-(4-hydroxybutyl)biphenyl-4-carboxamide] | 30 nM
Cc1c(Nc2c(C#N)cncc2-c2cccc(-c3ccc(C(=O)NCCCCO)cc3)c2)ccc2[nH]ccc12 [Compound 309, 3′-{5-cyano-4-[(4-methyl-1H-indol-5-yl)amino]pyridin-3-yl}-N-(4-hydroxybutyl)biphenyl-4-carboxamide] | 120 nM
N#Cc1cncc(-c2cccc(C(F)(F)F)c2)c1Nc1cccc2[nH]ccc12 [Compound 310, 4-(1H-indol-4-ylamino)-5-[3-(trifluoromethyl)phenyl]nicotinonitrile] | 20 nM
CN(C)S(=O)(=O)c1cccc(-c2cncc(C#N)c2Nc2cccc3[nH]ccc23)c1 [Compound 313, 3-[5-cyano-4-(1H-indol-4-ylamino)pyridin-3-yl]-N,N-dimethylbenzenesulfonamide] | 20 nM
N#Cc1cncc(-c2cccc(C(N)=O)c2)c1Nc1cccc2[nH]ccc12 [Compound 314, 3-[5-cyano-4-(1H-indol-4-ylamino)pyridin-3-yl]benzamide] | 100 nM
CN(C)Cc1ccc(-c2cccc(-c3cncc(C#N)c3Nc3cccc4[nH]ccc34)c2)s1 [Compound 315, 5-(3-{5-[(dimethylamino)methyl]-2-thienyl}phenyl)-4-(1H-indol-4-ylamino)nicotinonitrile] | 10 nM
CN(C)S(=O)(=O)c1ccccc1-c1cncc(C#N)c1Nc1cccc2[nH]ccc12 [Compound 316, 2-[5-cyano-4-(1H-indol-4-ylamino)pyridin-3-yl]-N,N-dimethylbenzenesulfonamide] | 1350 nM
N#Cc1cncc(-c2cccc3c2oc2ccccc23)c1Nc1cccc2[nH]ccc12 [Compound 319, 5-dibenzo[b,d]furan-4-yl-4-(1H-indol-4-ylamino)nicotinonitrile] | 60 nM
Cc1ccc(S(=O)(=O)n2cc(-c3cncc(C#N)c3Nc3cccc4[nH]ccc34)c3ccccc32)cc1 [Compound 320, 4-(1H-indol-4-ylamino)-5-{1-[(4-methylphenyl)sulfonyl]-1H-indol-3-yl}nicotinonitrile] | 30 nM
COc1ccc(-c2cncc(C#N)c2Nc2cccc3[nH]ccc23)cc1 [Compound 323, 4-(1H-indol-4-ylamino)-5-(4-methoxyphenyl)nicotinonitrile] | 20 nM
COc1ccccc1-c1cncc(C#N)c1Nc1cccc2[nH]ccc12 [Compound 324, 4-(1H-indol-4-ylamino)-5-(2-methoxyphenyl)nicotinonitrile] | 20 nM
N#Cc1cncc(-c2cc3ccccc3[nH]2)c1Nc1cccc2[nH]ccc12 [Compound 325, 5-(1H-indol-2-yl)-4-(1H-indol-4-ylamino)nicotinonitrile] | 60 nM
CN(C)S(=O)(=O)c1ccc(-c2cncc(C#N)c2Nc2cccc3[nH]ccc23)cc1 [Compound 326, 4-[5-cyano-4-(1H-indol-4-ylamino)pyridin-3-yl]-N,N-dimethylbenzenesulfonamide] | 190 nM
N#Cc1cncc(-c2cccc(C(=O)O)c2)c1Nc1cccc2[nH]ccc12 [Compound 327, 3-[5-cyano-4-(1H-indol-4-ylamino)pyridin-3-yl]benzoic acid] | 120 nM
N#Cc1cncc(-c2cccc(CN)c2)c1Nc1cccc2[nH]ccc12 [Compound 328, 5-[3-(aminomethyl)phenyl]-4-(1H-indol-4-ylamino)nicotinonitrile] | 20 nM
CN1CCN(CCOc2ccc(-c3cncc(C#N)c3Nc3cccc4[nH]ccc34)cc2)CC1 [Compound 335, 4-(1H-indol-4-ylamino)-5-{4-[2-(4-methylpiperazin-1-yl)ethoxy]phenyl}nicotinonitrile] | 10 nM
COc1ccc(-c2cncc(C#N)c2Nc2c(C)ccc3[nH]ccc23)cc1OC [Compound 336, 5-(3,4-dimethoxyphenyl)-4-[(5-methyl-1H-indol-4-yl)amino]nicotinonitrile] | 200 nM
COc1ccc(-c2cncc(C#N)c2Nc2cccc3[nH]ccc23)cc1OCCNCCCN1CCCC1=O [Compound 338, 4-(1H-indol-4-ylamino)-5-[4-methoxy-3-(2-{[3-(2-oxopyrrolidin-1-yl)propyl]amino}ethoxy)phenyl]nicotinonitrile] | 8 nM
COc1ccc(-c2cncc(C#N)c2Nc2cccc3[nH]ccc23)cc1OCCNCCc1c[nH]cn1 [Compound 339, 5-[3-(2-{[2-(1H-imidazol-4-yl)ethyl]amino}ethoxy)-4-methoxyphenyl]-4-(1H-indol-4-ylamino)nicotinonitrile] | 10 nM
COc1ccc(-c2cncc(C#N)c2Nc2ccc3[nH]ccc3c2C)cc1OCCN1CCN(C)CC1 [Compound 343, 5-{4-methoxy-3-[2-(4-methylpiperazin-1-yl)ethoxy]phenyl}-4-[(4-methyl-1H-indol-5-yl)amino]nicotinonitrile] | 10 nM
COc1cc(-c2cncc(C#N)c2Nc2ccc3[nH]ccc3c2C)ccc1OCCNCCCc1ccccc1 [Compound 344, 5-(3-methoxy-4-{2-[(3-phenylpropyl)amino]ethoxy}phenyl)-4-[(4-methyl-1H-indol-5-yl)amino]nicotinonitrile] | 8 nM
COc1cc(-c2cncc(C#N)c2Nc2ccc3[nH]ccc3c2C)ccc1OCCN(C)C [Compound 345, 5-{4-[2-(dimethylamino)ethoxy]-3-methoxyphenyl}-4-[(4-methyl-1H-indol-5-yl)amino]nicotinonitrile] | 7 nM
N#Cc1cncc(-c2cccc(Br)c2)c1Nc1cccc2c1CC(=O)N2 [Compound 346, 5-(3-bromophenyl)-4-[(2-oxo-2,3-dihydro-1H-indol-4-yl)amino]nicotinonitrile] | 540 nM
Cc1c(Nc2c(C#N)cncc2-c2ccc(OCCCl)cc2)ccc2[nH]ccc12 [Compound 348, 5-[4-(2-chloroethoxy)phenyl]-4-[(4-methyl-1H-indol-5-yl)amino]nicotinonitrile] | 4 nM
COc1ccc(-c2cncc(C#N)c2Nc2cccc3[nH]c(C)cc23)cc1OC [Compound 349, 5-(3,4-dimethoxyphenyl)-4-[(2-methyl-1H-indol-4-yl)amino]nicotinonitrile] | 130 nM
Cc1c(Nc2c(C#N)cncc2-c2ccc(OCCN3CCN(C)CC3)cc2)ccc2[nH]ccc12 [Compound 350, 4-[(4-methyl-1H-indol-5-yl)amino]-5-{4-[2-(4-methylpiperazin-1-yl)ethoxy]phenyl}nicotinonitrile] | 8 nM
Cc1c(Nc2c(C#N)cncc2-c2ccc(OCCN3CCOCC3)cc2)ccc2[nH]ccc12 [Compound 351, 4-[(4-methyl-1H-indol-5-yl)amino]-5-[4-(2-morpholin-4-ylethoxy)phenyl]nicotinonitrile] | 20 nM
COc1ccc(-c2cncc(C#N)c2Nc2cccc3[nH]ccc23)cc1OCCNCCc1ccccc1 [Compound 353, 4-(1H-indol-4-ylamino)-5-(4-methoxy-3-{2-[(2-phenylethyl)amino]ethoxy}phenyl)nicotinonitrile] | 1 nM
Cc1c(Nc2c(C#N)cncc2-c2ccc(OCCNCCCc3ccccc3)cc2)ccc2[nH]ccc12 [Compound 355, 4-[(4-methyl-1H-indol-5-yl)amino]-5-(4-{2-[(3-phenylpropyl)amino]ethoxy}phenyl)nicotinonitrile] | 3 nM

More lines, in order of falling IC50, values ahead:

IC50 | Structure (SMILES)
8210 nM | COc1ccc(-c2cncc(C#N)c2Nc2cccc3c2CC(=O)N3)cc1OC [Compound 329, 5-(3,4-dimethoxyphenyl)-4-[(2-oxo-2,3-dihydro-1H-indol-4-yl)amino]nicotinonitrile]
600 nM | CN(C)C(=O)c1cccc(-c2cncc(C#N)c2Nc2cccc3[nH]ccc23)c1 [Compound 312, 3-[5-cyano-4-(1H-indol-4-ylamino)pyridin-3-yl]-N,N-dimethylbenzamide]
130 nM | COCCNC(=O)c1ccc(-c2cncc(C#N)c2Nc2cccc3[nH]ccc23)cc1 [Compound 330, 4-[5-cyano-4-(1H-indol-4-ylamino)pyridin-3-yl]-N-(2-methoxyethyl)benzamide]
60 nM | Cc1c(Nc2c(C#N)cncc2-c2cccc(-c3ccc(C=O)s3)c2)ccc2[nH]ccc12 [Compound 306, 5-[3-(5-formyl-2-thienyl)phenyl]-4-[(4-methyl-1H-indol-5-yl)amino]nicotinonitrile]
30 nM | N#Cc1cncc(-c2ccc(OCCN3CCOCC3)cc2)c1Nc1cccc2[nH]ccc12 [Compound 334, 4-(1H-indol-4-ylamino)-5-[4-(2-morpholin-4-ylethoxy)phenyl]nicotinonitrile]
20 nM | N#Cc1cccc(-c2cncc(C#N)c2Nc2cccc3[nH]ccc23)c1 [Compound 311, 5-(3-cyanophenyl)-4-(1H-indol-4-ylamino)nicotinonitrile]
20 nM | CS(=O)(=O)Nc1ccc(-c2cncc(C#N)c2Nc2cccc3[nH]ccc23)cc1 [Compound 317, N-{4-[5-cyano-4-(1H-indol-4-ylamino)pyridin-3-yl]phenyl}methanesulfonamide]
20 nM | N#Cc1cncc(-c2cc3ccccc3s2)c1Nc1cccc2[nH]ccc12 [Compound 322, 5-(1-benzothien-2-yl)-4-(1H-indol-4-ylamino)nicotinonitrile]
10 nM | N#Cc1cncc(-c2cc3ccccc3o2)c1Nc1cccc2[nH]ccc12 [Compound 318, 5-(1-benzofuran-2-yl)-4-(1H-indol-4-ylamino)nicotinonitrile]
8 nM | N#Cc1cncc(-c2ccc(OCCCl)cc2)c1Nc1cccc2[nH]ccc12 [Compound 332, 5-[4-(2-chloroethoxy)phenyl]-4-(1H-indol-4-ylamino)nicotinonitrile]
4 nM | COc1ccc(-c2cncc(C#N)c2Nc2cccc3[nH]ccc23)cc1OCCNCCc1cccnc1 [Compound 354, 4-(1H-indol-4-ylamino)-5-(4-methoxy-3-{2-[(2-pyridin-3-ylethyl)amino]ethoxy}phenyl)nicotinonitrile]
1 nM | COc1ccc(-c2cncc(C#N)c2Nc2ccc3[nH]ccc3c2C)cc1OCCNCCCc1ccccc1 [Compound 342, 5-(4-methoxy-3-{2-[(3-phenylpropyl)amino]ethoxy}phenyl)-4-[(4-methyl-1H-indol-5-yl)amino]nicotinonitrile]
